Measurements published in US12077503B2, “Substituted cyclic amides and their use as herbicides” (FMC CORPORATION, priority 2015, dated 2024).

Legend:
Format in all cases: in vivo
[1] = test system: barnyardgrass (Echinochloa crus-galli); experiment: Test G Pre-Emergence Protocol; settings: evaluated after 13 days
Method: (§1) Seeds of corn (Zea mays), giant foxtail (Setaria faberi), barnyardgrass (Echinochloa crus-galli), ivy-leaved morning glory (Ipomoea hederacea), redroot pigweed (Amaranthus retroflexus) and velvetleaf (Abutilon theophrasti) were sown in standard soil in pots. After cultivation for one day under controlled conditions in a glasshouse (at 24/16° C., day/night; 14 hours light; 65% humidity), the plants were sprayed with an aqueous spray solution derived from the formulation of the technical active ingredient in acetone/water (50:50) solution containing 0.5% Tween 20 (polyoxyethylene sorbitan monolaurate, CAS RN 9005-64-5) to give a final dose of 15.625, 62.5 or 250 g/ha of test compound.
(§2) The test plants were then grown on under controlled conditions in a glasshouse (at 24/16° C., day/night; 14 hours light; 65% humidity) and watered twice daily. After 13 days the test was evaluated (100=total damage to plant; 0=no damage to plant). A dash (-) means no test result.

corn (Zea mays) [2] = experiment: Test G Pre-Emergence Protocol; settings: evaluated after 13 days
Method: as §1, §2

[3] = test system: giant foxtail (Setaria faberi); experiment: Test G Pre-Emergence Protocol; settings: evaluated after 13 days
Method: as §1, §2

[4] = test system: ivy-leaved morning glory (Ipomoea hederacea); experiment: Test G Pre-Emergence Protocol; settings: evaluated after 13 days; for Morning-glory, Ivy-leaved damage rating (100=total damage to plant; 0=no damage to plant): 15.625 g ai/ha; for plant damage rating, Morningglory, Ivy-leaved: 62.5 g ai/ha, 100=total damage to plant, 0=no damage to plant
Method: as §1, §2

[5] = test system: redroot pigweed (Amaranthus retroflexus); experiment: Test G Pre-Emergence Protocol; settings: evaluated after 13 days; for plant damage rating, Pigweed, Redroot: 62.5 g ai/ha, 100=total damage to plant, 0=no damage to plant
Method: as §1, §2

[6] = test system: velvetleaf (Abutilon theophrasti); experiment: Test G Pre-Emergence Protocol; settings: evaluated after 13 days; for plant damage rating, Velvetleaf: 62.5 g ai/ha, 100=total damage to plant, 0=no damage to plant
Method: as §1, §2

[7] = test system: barnyardgrass (Echinochloa crus-galli); experiment: Test G Post-Emergence Protocol; settings: for Barnyardgrass damage rating: 15.625 g ai/ha, evaluated after 13 days (100=total damage to plant; 0=no damage to plant); for Barnyardgrass damage rating (100=total damage to plant; 0=no damage to plant): 62.5 g ai/ha; for Barnyardgrass damage rating (100=total damage to plant; 0=no damage to plant) / damage to plant, Barnyardgrass (100=total damage to plant; 0=no damage to plant): evaluated after 13 days; for damage to plant, Barnyardgrass (100=total damage to plant; 0=no damage to plant): 250 g ai/ha
Method: as §1, with “8 days” for “one day”
as §2

corn (Zea mays) [8] = experiment: Test G Post-Emergence Protocol; settings: for damage to plant, Corn (100=total damage to plant; 0=no damage to plant): 250 g ai/ha
Method: as §1, with “8 days” for “one day”
as §2

[9] = test system: giant foxtail (Setaria faberi); experiment: Test G Post-Emergence Protocol; settings: for Foxtail, Giant damage rating: 15.625 g ai/ha, evaluated after 13 days (100=total damage to plant; 0=no damage to plant)
Method: as §1, with “8 days” for “one day”
as §2

[10] = test system: ivy-leaved morning glory (Ipomoea hederacea); experiment: Test G Post-Emergence Protocol; settings: for Morningglory, Ivy-leaved damage rating: 15.625 g ai/ha, evaluated after 13 days (100=total damage to plant; 0=no damage to plant); for Morningglory, Ivy-leaved damage rating (100=total damage to plant; 0=no damage to plant): 62.5 g ai/ha; for Morningglory, Ivy-leaved damage rating (100=total damage to plant; 0=no damage to plant) / damage to plant, Morningglory, Ivy-leaved (100=total damage to plant; 0=no damage to plant): evaluated after 13 days; for damage to plant, Morningglory, Ivy-leaved (100=total damage to plant; 0=no damage to plant): 250 g ai/ha
Method: as §1, with “8 days” for “one day”
as §2

[11] = test system: redroot pigweed (Amaranthus retroflexus); experiment: Test G Post-Emergence Protocol; settings: for Pigweed, Redroot damage rating (100=total damage to plant; 0=no damage to plant): 62.5 g ai/ha
Method: as §1, with “8 days” for “one day”
as §2

[12] = test system: velvetleaf (Abutilon theophrasti); experiment: Test G Post-Emergence Protocol; settings: for Velvetleaf damage rating: 15.625 g ai/ha, evaluated after 13 days (100=total damage to plant; 0=no damage to plant); for Velvetleaf damage rating (100=total damage to plant; 0=no damage to plant): 62.5 g ai/ha; for Velvetleaf damage rating (100=total damage to plant; 0=no damage to plant) / damage to plant, Velvetleaf (100=total damage to plant; 0=no damage to plant): evaluated after 13 days; for damage to plant, Velvetleaf (100=total damage to plant; 0=no damage to plant): 250 g ai/ha
Method: as §1, with “8 days” for “one day”
as §2

[13] = 62.5 g ai/ha, 100=total damage to plant, 0=no damage to plant
[14] = 15.625 g ai/ha, evaluated after 13 days (100=total damage to plant; 0=no damage to plant)
[15] = 62.5 g ai/ha, evaluated after 13 days
[16] = 250 g ai/ha, evaluated after 13 days

Row | SMILES | Corn damage rating (100=total damage to plant; 0=no damage to plant) (corn (Zea mays) [2]; 15.625 g ai/ha) | Morning-glory, Ivy-leaved damage rating (100=total damage to plant; 0=no damage to plant) [4] | plant damage rating, Morningglory, Ivy-leaved [4] | Pigweed, Redroot damage rating (100=total damage to plant; 0=no damage to plant) ([5]; 15.625 g ai/ha) | plant damage rating, Pigweed, Redroot [5] | Velvetleaf damage rating (100=total damage to plant; 0=no damage to plant) ([6]; 15.625 g ai/ha) | plant damage rating, Velvetleaf [6] | Velvetleaf damage rating (100=total damage to plant; 0=no damage to plant) ([6]; 250 g ai/ha) | Barnyardgrass damage rating [7] | Barnyardgrass damage rating (100=total damage to plant; 0=no damage to plant) [7] | damage to plant, Barnyardgrass (100=total damage to plant; 0=no damage to plant) [7] | damage to plant, Corn (100=total damage to plant; 0=no damage to plant) (corn (Zea mays) [8]; evaluated after 13 days) | Foxtail, Giant damage rating [9] | Morningglory, Ivy-leaved damage rating [10] | Morningglory, Ivy-leaved damage rating (100=total damage to plant; 0=no damage to plant) [10] | damage to plant, Morningglory, Ivy-leaved (100=total damage to plant; 0=no damage to plant) [10] | Pigweed, Redroot damage rating (100=total damage to plant; 0=no damage to plant) ([11]; evaluated after 13 days) | Velvetleaf damage rating [12] | Velvetleaf damage rating (100=total damage to plant; 0=no damage to plant) [12] | damage to plant, Velvetleaf (100=total damage to plant; 0=no damage to plant) [12] | also measured
1 | CN1C[C@H](c2ccc(C(F)(F)F)cc2)[C@@H](C(=O)Nc2cccc(F)n2)C1=O (racemic) [Compound 1428] | 50 | 10 | 10 | 0 | 0 | 0 | 0 | 0 | 20 | 20 | 40 | 20 | 30 | 10 | 10 | 20 | 10 | 0 | 0 | 0 | pest or weed control at 15.625 g/ha ([1]; Echinochloa crus-galli, pre-emergence, 312 h, 15.625 g ai/ha, read-out: Barnyard grass damage rating (100=total damage to plant; 0=no damage to plant)): 50%; pest or weed control at 62.5 g/ha ([1]; Echinochloa crus-galli, pre-emergence, 312 h, 62.5 g ai/ha, 100=total damage to plant, 0=no damage to plant, read-out: plant damage rating, Barnyardgrass): 60%; pest or weed control at 250 g/ha ([1]; Echinochloa crus-galli, pre-emergence, 312 h, 250 g ai/ha, read-out: Barnyardgrass damage rating (100=total damage to plant; 0=no damage to plant)): 80%; plant injury at 62.5 g/ha (corn (Zea mays) [2]; Zea mays, pre-emergence, 312 h, 62.5 g ai/ha, 100=total damage to plant, 0=no damage to plant, read-out: plant damage rating, Corn): 20%; plant injury at 250 g/ha (corn (Zea mays) [2]; Zea mays, pre-emergence, 312 h, 250 g ai/ha, read-out: Corn damage rating (100=total damage to plant; 0=no damage to plant)): 70%; pest or weed control at 15.625 g/ha ([3]; Setaria faberi, pre-emergence, 312 h, 15.625 g ai/ha, read-out: Foxtail, Giant damage rating (100=total damage to plant; 0=no damage to plant)): 70%; pest or weed control at 62.5 g/ha ([3]; Setaria faberi, pre-emergence, 312 h, 62.5 g ai/ha, 100=total damage to plant, 0=no damage to plant, read-out: plant damage rating, Foxtail, Giant): 80%; pest or weed control at 250 g/ha ([3]; Setaria faberi, pre-emergence, 312 h, 250 g ai/ha, read-out: Foxtail, Giant damage rating (100=total damage to plant; 0=no damage to plant)): 80%; pest or weed control at 250 g/ha ([4]; Ipomoea, pre-emergence, 312 h, 250 g ai/ha, read-out: Morningglory, Ivy-leaved damage rating (100=total damage to plant; 0=no damage to plant)): 40%; pest or weed control at 250 g/ha ([5]; Amaranthus retroflexus, pre-emergence, 312 h, 250 g ai/ha, read-out: Pigweed, Redroot damage rating (100=total damage to plant; 0=no damage to plant)): 80%; plant injury at 15.625 g/ha (corn (Zea mays) [8]; Zea mays, post-emergence, 312 h, 15.625 g ai/ha, evaluated after 13 days (100=total damage to plant; 0=no damage to plant), read-out: Corn damage rating): 10%; plant injury at 62.5 g/ha (corn (Zea mays) [8]; Zea mays, post-emergence, 312 h, 62.5 g ai/ha, evaluated after 13 days, read-out: Corn damage rating (100=total damage to plant; 0=no damage to plant)): 10%; pest or weed control at 62.5 g/ha ([9]; Setaria faberi, post-emergence, 312 h, 62.5 g ai/ha, evaluated after 13 days, read-out: Foxtail, Giant damage rating (100=total damage to plant; 0=no damage to plant)): 50%; pest or weed control at 250 g/ha ([9]; Setaria faberi, post-emergence, 312 h, 250 g ai/ha, evaluated after 13 days, read-out: damage to plant, Foxtail, Giant (100=total damage to plant; 0=no damage to plant)): 60%; pest or weed control at 15.625 g/ha ([11]; Amaranthus retroflexus, post-emergence, 312 h, 15.625 g ai/ha, evaluated after 13 days (100=total damage to plant; 0=no damage to plant), read-out: Pigweed, Redroot damage rating): 10%; pest or weed control at 250 g/ha ([11]; Amaranthus retroflexus, post-emergence, 312 h, 250 g ai/ha, evaluated after 13 days, read-out: damage to plant, Pigweed, Redroot (100=total damage to plant; 0=no damage to plant)): 40%
2 | CN1CC(c2ccc(C(F)(F)F)cc2)C(C(=O)Nc2ccncc2[N+](=O)[O-])C1=O (racemic) [Compound 1568] | 0 | 0 | 0 | 0 | 0 | 0 | 0 | 0 | 0 | 10 | 20 | 10 | 0 | 0 | 0 | 0 | 0 | 0 | 0 | 0 | Barnyardgrass damage rating (100=total damage to plant; 0=no damage to plant) ([1]; 15.625 g ai/ha): 0; plant damage rating, Barnyardgrass [1, 13]: 0; Barnyardgrass damage rating (100=total damage to plant; 0=no damage to plant) ([1]; 250 g ai/ha): 0; plant damage rating, Corn (corn (Zea mays) [2]; [13]): 0; Corn damage rating (100=total damage to plant; 0=no damage to plant) (corn (Zea mays) [2]; 250 g ai/ha): 0; Foxtail, Giant damage rating (100=total damage to plant; 0=no damage to plant) ([3]; 15.625 g ai/ha): 0; plant damage rating, Foxtail, Giant [3, 13]: 0; Foxtail, Giant damage rating (100=total damage to plant; 0=no damage to plant) ([3]; 250 g ai/ha): 0; Morningglory, Ivy-leaved damage rating (100=total damage to plant; 0=no damage to plant) ([4]; 250 g ai/ha): 0; Pigweed, Redroot damage rating (100=total damage to plant; 0=no damage to plant) ([5]; 250 g ai/ha): 0; Corn damage rating (corn (Zea mays) [8]; [14]): 0; Corn damage rating (100=total damage to plant; 0=no damage to plant) (corn (Zea mays) [8]; [15]): 0; Foxtail, Giant damage rating (100=total damage to plant; 0=no damage to plant) [9, 15]: 0; damage to plant, Foxtail, Giant (100=total damage to plant; 0=no damage to plant) [9, 16]: 0; Pigweed, Redroot damage rating [11, 14]: 0; damage to plant, Pigweed, Redroot (100=total damage to plant; 0=no damage to plant) [11, 16]: 0
